The source of these data is patent publication US9278981B2, “Compounds and compositions for inhibiting the activity of ABL1, ABL2 and BCR-ABL1” (Novartis AG, priority 2012, dated 2016).

For this test, the target named is ABL1 (64-515) (Homo sapiens (Human), UniProt P00519). The test can be described thus: Radio ABL1 (64-515) assay (radiometric filter-binding). Format: biochemical.
Sequence of ABL1 (64-515) (P00519 64-515): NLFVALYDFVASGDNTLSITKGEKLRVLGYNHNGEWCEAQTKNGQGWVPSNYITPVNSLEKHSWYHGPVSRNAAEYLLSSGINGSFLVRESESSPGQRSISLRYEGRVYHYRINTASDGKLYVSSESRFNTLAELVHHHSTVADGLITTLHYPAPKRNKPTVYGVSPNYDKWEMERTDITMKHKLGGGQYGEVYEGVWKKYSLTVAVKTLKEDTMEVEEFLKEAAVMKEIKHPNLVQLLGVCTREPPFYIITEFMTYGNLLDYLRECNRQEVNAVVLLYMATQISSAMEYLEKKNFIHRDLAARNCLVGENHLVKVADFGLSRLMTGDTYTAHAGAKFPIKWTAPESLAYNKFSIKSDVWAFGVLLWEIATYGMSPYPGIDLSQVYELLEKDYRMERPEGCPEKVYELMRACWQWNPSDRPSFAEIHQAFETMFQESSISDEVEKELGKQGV
For the compound `Cc1ncc(-c2cc(C(=O)Nc3ccc(OC(F)(F)F)cc3)ccc2N2CC[C@@H](O)C2)cn1` [Example 3, (R)-4-(3-Hydroxypyrrolidin-1-yl)-3-(2-methylpyrimidin-5-yl)-N-(4-(trifluoromethoxy)phenyl)benzamide], the IC50 (usually the concentration that inhibits the measured activity by half) was under 3 nM. `Cc1ccc(-c2cc(C(=O)Nc3ccc(OC(F)(F)F)cc3)ccc2N2CC[C@@H](O)C2)cn1` [Example 6, (R)-4-(3-Hydroxypyrrolidin-1-yl)-3-(6-methylpyridin-3-yl)-N-(4-(trifluoromethoxy)phenyl)benzamide] showed an IC50 of under 3 nM. In the case of `CC1(O)CCN(c2ccc(C(=O)Nc3ccc(OC(F)(F)F)cc3)cc2-c2cncnc2)C1` (stereo not drawn) [Example 11, 4-(3-Hydroxy-3-methylpyrrolidin-1-yl)-3-(pyrimidin-5-yl)-N-(4-(trifluoromethoxy)phenyl)benzamide], the IC50 was under 3 nM. Under `CC(=O)NC1CCN(c2ncc(C(=O)Nc3ccc(OC(F)(F)F)cc3)cc2-c2cncnc2)C1` (stereo not drawn) [Example 15] stands under 3 nM.

`CN1CC2CN(c3ncc(C(=O)Nc4ccc(OC(F)(F)F)cc4)cc3-c3cncnc3)CC2C1` (stereo not drawn) [Example 16]: the IC50 was under 3 nM.

`O=C(Nc1ccc(OC(F)(F)F)cc1)c1cnc(N2CCC3(CCNC3=O)C2)c(-c2cncnc2)c1` (stereo not drawn) [Example 17] came in with a 50% inhibitory concentration (IC50) of under 3 nM. `O=C(Nc1ccc(OC(F)(F)F)cc1)c1cnc(N2Cc3ccncc3C2)c(-c2cncnc2)c1` [Example 18] came in with an IC50 of under 3 nM. Regarding `O=C(Nc1ccc(OC(F)(F)F)cc1)c1cnc(N2CCCC(CO)C2)c(-c2cncnc2)c1` (stereo not drawn) [Example 19], the IC50 was under 3 nM. On to `CC(=O)NC1CCCN(c2ncc(C(=O)Nc3ccc(OC(F)(F)F)cc3)cc2-c2cncnc2)C1` (stereo not drawn) [Example 20], for which the IC50 is under 3 nM. In turn, `NC(=O)C1CCN(c2ncc(C(=O)Nc3ccc(OC(F)(F)F)cc3)cc2-c2cncnc2)CC1` [Example 21] came in with an IC50 of 13 nM.

Compound `O=C(Nc1ccc(OC(F)(F)F)cc1)c1cnc(N2CCC(O)CC2)c(-c2cncnc2)c1` [Example 22] registered an IC50 of under 3 nM. `N#C[C@@H]1CCCN(c2ncc(C(=O)Nc3ccc(OC(F)(F)F)cc3)cc2-c2cncnc2)C1` [Example 23] displayed an IC50 of under 3 nM. The same measure for `N#C[C@H]1CCCN(c2ncc(C(=O)Nc3ccc(OC(F)(F)F)cc3)cc2-c2cncnc2)C1` [Example 24]: under 3 nM; for `CN(c1ncc(C(=O)Nc2ccc(OC(F)(F)F)cc2)cc1-c1cncnc1)C1CCOCC1` [Example 27]: under 3 nM. As to `COc1ncc(-c2cc(C(=O)Nc3ccc(OC(F)(F)F)cc3)cnc2N2CCC(O)C2)cn1` (stereo not drawn) [Example 28, 6-(3-Hydroxypyrrolidin-1-yl)-5-(2-methoxypyrimidin-5-yl)-N-(4-(trifluoromethoxy)phenyl)nicotinamide], the IC50 was under 3 nM.

`O=C(Nc1ccc(OC(F)(F)F)cc1)c1cnc(N2CCC(O)C2)c(-c2cccnc2)c1` (stereo not drawn) [Example 29, 2-(3-Hydroxypyrrolidin-1-yl)-N-(4-(trifluoromethoxy)phenyl)-[3,3′-bipyridine]-5-carboxamide] registered an IC50 of under 3 nM. Compound `Cc1ccc(-c2cc(C(=O)Nc3ccc(OC(F)(F)F)cc3)cnc2N2CCC(O)C2)cn1` (stereo not drawn) [Example 30, 2-(3-Hydroxypyrrolidin-1-yl)-6′-methyl-N-(4-(trifluoromethoxy)phenyl)-[3,3′-bipyridine]-5-carboxamide] registered an IC50 of under 3 nM. For the compound `O=C(Nc1ccc(OC(F)(F)F)cc1)c1cnc(N2CCC(O)C2)c(-c2ccncc2)c1` (stereo not drawn) [Example 31, 2-(3-Hydroxypyrrolidin-1-yl)-N-(4-(trifluoromethoxy)phenyl)-[3,4′-bipyridine]-5-carboxamide], the IC50 is 7 nM. That is a single-digit nanomolar value. Turning to `O=C(Nc1ccc(OC(F)(F)F)cc1)c1cnc(N2CCC(O)C2)c(-c2ccc(C(F)(F)F)nc2)c1` (stereo not drawn) [Example 32, 2-(3-Hydroxypyrrolidin-1-yl)-N-(4-(trifluoromethoxy)phenyl)-6′-(trifluoromethyl)-[3,3′-bipyridine]-5-carboxamide], the IC50 is under 3 nM. With `Cc1ncc(-c2cc(C(=O)Nc3ccc(OC(F)(F)F)cc3)cnc2N2CC[C@@H](O)C2)cn1` [Example 36, (R)-6-(3-Hydroxypyrrolidin-1-yl)-5-(2-methylpyrimidin-5-yl)-N-(4-(trifluoromethoxy)phenyl)nicotinamide], the IC50 was under 3 nM. Under `COc1ncc(-c2cc(C(=O)Nc3ccc(OC(F)(F)F)cc3)cnc2N2CC[C@@H](O)C2)cn1` [Example 37, (R)-6-(3-Hydroxypyrrolidin-1-yl)-5-(2-methoxypyrimidin-5-yl)-N-(4-(trifluoromethoxy)phenyl)nicotinamide] stands 3 nM; under `Cc1cncc(-c2cc(C(=O)Nc3ccc(OC(F)(F)F)cc3)cnc2N2CC[C@@H](O)C2)c1` [Example 44, (R)-2-(3-Hydroxypyrrolidin-1-yl)-5′-methyl-N-(4-(trifluoromethoxy)phenyl)-[3,3′-bipyridine]-5-carboxamide], under 3 nM. Take `COc1cncc(-c2cc(C(=O)Nc3ccc(OC(F)(F)F)cc3)cnc2N2CC[C@@H](O)C2)c1` [Example 55, (R)-2-(3-hydroxypyrrolidin-1-yl)-5′-methoxy-N-(4-(trifluoromethoxy)phenyl)-[3,3′-bipyridine]-5-carboxamide]: the 50% inhibitory concentration (IC50) amounted to 3 nM. This counts as single-digit nanomolar. With `COc1ccc(-c2cc(C(=O)Nc3ccc(OC(F)(F)F)cc3)cnc2N2CC[C@@H](O)C2)cn1` [Example 56, (R)-2-(3-hydroxypyrrolidin-1-yl)-6′-methoxy-N-(4-(trifluoromethoxy)phenyl)-[3,3′-bipyridine]-5-carboxamide], the IC50 is 4 nM. Under `O=C(Nc1ccc(OC(F)(F)F)cc1)c1cnc(N2CC[C@@H](O)C2)c(-c2cccc(CO)c2)c1` [Example 59, (R)-5-(3-(Hydroxymethyl)phenyl)-6-(3-hydroxypyrrolidin-1-yl)-N-(4-(trifluoromethoxy)phenyl)nicotinamide] stands 6 nM; under `O=C(Nc1ccc(OC(F)(F)F)cc1)c1cnc(N2CC[C@@H](O)C2)c(-c2ccc3ccncc3c2)c1` [Example 63, (R)-6-(3-Hydroxypyrrolidin-1-yl)-5-(isoquinolin-7-yl)-N-(4-(trifluoromethoxy)phenyl)nicotinamide], 4 nM; under `O=C(Nc1ccc(OC(F)(F)F)cc1)c1cnc(N2CC[C@@H](O)C2)c(-c2ccc3nccnc3c2)c1` [Example 64, (R)-6-(3-Hydroxypyrrolidin-1-yl)-5-(quinoxalin-6-yl)-N-(4-(trifluoromethoxy)phenyl)nicotinamide], under 3 nM. The compound `O=C(Nc1ccc(OC(F)(F)F)cc1)c1cnc(N2CCCC2)c(-c2cncnc2)c1` [Example 67, 5-(Pyrimidin-5-yl)-6-(pyrrolidin-1-yl)-N-(4-(trifluoromethoxy)phenyl)nicotinamide] gave an IC50 of under 3 nM. Compound `O=C(Nc1ccc(OC(F)(F)F)cc1)c1cnc(N2CC[C@@H](CO)C2)c(-c2cccnc2)c1` [Example 76, (R)-2-(3-(Hydroxymethyl)pyrrolidin-1-yl)-N-(4-(trifluoromethoxy)phenyl)-[3,3′-bipyridine]-5-carboxamide] had an IC50 of under 3 nM. For the compound `N#Cc1ncc(-c2cc(C(=O)Nc3ccc(OC(F)(F)F)cc3)cnc2N2CC[C@H](CO)C2)cn1` [Example 80, (S)-5-(2-Cyanopyrimidin-5-yl)-6-(3-(hydroxymethyl)pyrrolidin-1-yl)-N-(4-(trifluoromethoxy)phenyl)nicotinamide], the IC50 turned out to be 5 nM. In the case of `O=C(Nc1ccc(OC(F)(F)F)cc1)c1cnc(N2CC[C@H](CO)C2)c(-c2cccnc2)c1` [Example 81, (S)-2-(3-(Hydroxymethyl)pyrrolidin-1-yl)-N-(4-(trifluoromethoxy)phenyl)-[3,3′-bipyridine]-5-carboxamide], the IC50 was under 3 nM. As to `CCc1ccc(-c2cc(C(=O)Nc3ccc(OC(F)(F)F)cc3)cnc2N2CC[C@H](CO)C2)cn1` [Example 83, (S)-6′-Ethyl-2-(3-(hydroxymethyl)pyrrolidin-1-yl)-N-(4-(trifluoromethoxy)phenyl)-[3,3′-bipyridine]-5-carboxamide], the IC50 stood at 11 nM. With `O=C(Nc1ccc(OC(F)(F)F)cc1)c1cnc(N2CC[C@H](CO)C2)c(-c2ccc(C3CC3)nc2)c1` [Example 85, (S)-6′-Cyclopropyl-2-(3-(hydroxymethyl)pyrrolidin-1-yl)-N-(4-(trifluoromethoxy)phenyl)-[3,3′-bipyridine]-5-carboxamide], the IC50 came out at 26 nM. `N#Cc1ccc(-c2cc(C(=O)Nc3ccc(OC(F)(F)F)cc3)cnc2N2CC[C@H](CO)C2)cn1` [Example 91, (S)-6′-Cyano-2-(3-(hydroxymethyl)pyrrolidin-1-yl)-N-(4-(trifluoromethoxy)phenyl)-[3,3′-bipyridine]-5-carboxamide] returned an IC50 of 5 nM.

With `N[C@@H]1CCN(c2ncc(C(=O)Nc3ccc(OC(F)(F)F)cc3)cc2-c2cccnc2)C1` [Example 94, (R)-2-(3-Aminopyrrolidin-1-yl)-N-(4-(trifluoromethoxy)phenyl)-[3,3′-bipyridine]-5-carboxamide], the IC50 is under 3 nM.

`Cc1ccc(-c2cc(C(=O)Nc3ccc(OC(F)(F)F)cc3)cnc2N2CC[C@@H](N)C2)cn1` [Example 95, (R)-2-(3-Aminopyrrolidin-1-yl)-6′-methyl-N-(4-(trifluoromethoxy)phenyl)-[3,3′-bipyridine]-5-carboxamide]: the IC50 was under 3 nM. Under `N[C@H]1CCN(c2ncc(C(=O)Nc3ccc(OC(F)(F)F)cc3)cc2-c2cccnc2)C1` [Example 97, (S)-2-(3-Aminopyrrolidin-1-yl)-N-(4-(trifluoromethoxy)phenyl)-[3,3′-bipyridine]-5-carboxamide] stands under 3 nM.

In turn, `CN[C@@H]1CCN(c2ncc(C(=O)Nc3ccc(OC(F)(F)F)cc3)cc2-c2cncnc2)C1` [Example 99, (R)-6-(3-(Methylamino)pyrrolidin-1-yl)-5-(pyrimidin-5-yl)-N-(4-(trifluoromethoxy)phenyl)nicotinamide] came in with an IC50 of under 3 nM.

In turn, `CN[C@@H]1CCN(c2ncc(C(=O)Nc3ccc(OC(F)(F)F)cc3)cc2-c2cccnc2)C1` [Example 100, (R)-2-(3-(Methylamino)pyrrolidin-1-yl)-N-(4-(trifluoromethoxy)phenyl)-[3,3′-bipyridine]-5-carboxamide] displayed an IC50 of under 3 nM.
